Results: PubChem BioAssay AID248 (DTP/NCI, 2004)
Values joined by “and” are separate entries in the source; they are usually repeats but may differ in a detail not shown here. Equal values may be shown once. Inconclusive results and toxic doses are left out. No stated cut-off is given here; in the data, active means T/C of 150% or more; inactive means T/C below 125%.

Test system: L1210 leukemia ip in BDF1 mice, survival T/C
Test: NCI In Vivo Anticancer Drug Screen. Data for tumor model L1210 Leukemia (intraperitoneal) in B6D2F1 (BDF1) mice
Details: endpoint: mean survival time, higher = longer survival
Summary of the method: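 Mice bearing the transplanted tumor received compound or vehicle. Survival of the treated group was divided by that of the vehicle-treated control group to give the ratio.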

[1] = dose: 100.0 mg/kg/injection, schedule: Q04DX003 (ip), vehicle: alcohol
[2] = dose: 200.0 mg/kg/injection, schedule: Q04DX003 (ip), vehicle: alcohol
[3] = dose: 400.0 mg/kg/injection, schedule: Q04DX003 (ip), vehicle: alcohol
[4] = dose: 12.5 mg/kg/injection, schedule: Q04DX003 (ip), vehicle: saline with Tween-80
[5] = dose: 25.0 mg/kg/injection, schedule: Q04DX003 (ip), vehicle: saline with Tween-80
[6] = dose: 100.0 mg/kg/injection, schedule: Q01DX001 (ip), vehicle: saline
[7] = dose: 200.0 mg/kg/injection, schedule: Q01DX001 (ip), vehicle: saline
[8] = dose: 400.0 mg/kg/injection, schedule: Q01DX001 (ip), vehicle: saline
[9] = dose: 50.0 mg/kg/injection, schedule: Q01DX009 (ip), vehicle: saline
[10] = dose: 100.0 mg/kg/injection, schedule: Q01DX009 (ip), vehicle: saline
[11] = dose: 100.0 mg/kg/injection, schedule: Q04DX003 (ip), vehicle: saline
[12] = dose: 200.0 mg/kg/injection, schedule: Q01DX009 (ip), vehicle: saline
[13] = dose: 200.0 mg/kg/injection, schedule: Q04DX003 (ip), vehicle: saline
[14] = dose: 100.0 mg/kg/injection, schedule: Q01DX009 (ip), vehicle: Klucel (hydroxypropylcellulose) (HPC)
[15] = dose: 200.0 mg/kg/injection, schedule: Q01DX009 (ip), vehicle: Klucel (hydroxypropylcellulose) (HPC)
[16] = dose: 400.0 mg/kg/injection, schedule: Q01DX009 (ip), vehicle: Klucel (hydroxypropylcellulose) (HPC)
[17] = dose: 400.0 mg/kg/injection, schedule: Q01DX009 (ip), vehicle: saline
[18] = dose: 100.0 mg/kg/injection, schedule: Q01DX009 (ip), vehicle: saline with Tween-80
[19] = dose: 100.0 mg/kg/injection, schedule: Q04DX003 (ip), vehicle: saline with Tween-80
[20] = dose: 200.0 mg/kg/injection, schedule: Q01DX009 (ip), vehicle: saline with Tween-80
[21] = dose: 200.0 mg/kg/injection, schedule: Q04DX003 (ip), vehicle: saline with Tween-80
[22] = dose: 400.0 mg/kg/injection, schedule: Q04DX003 (ip), vehicle: saline with Tween-80

Measured: T/C

CCCCC(O)(C#CC(O)(CC)CCCC)CC (stereo not given)
inactive: dose: 100.0 mg/kg/injection, schedule: Q01DX001 (ip), vehicle: other 103 % of control | dose: 200.0 mg/kg/injection, schedule: Q01DX001 (ip), vehicle: other 105 % of control | dose: 400.0 mg/kg/injection, schedule: Q01DX001 (ip), vehicle: other 102 % of control

COC(=O)C1C=C2c3cccc4[nH]cc(c34)CC2N(C#N)C1 (stereo not given)
inactive: dose: 25.0 mg/kg/injection, schedule: Q04DX003 (ip), vehicle: alcohol 91 % of control | dose: 50.0 mg/kg/injection, schedule: Q04DX003 (ip), vehicle: alcohol 100 % of control | [1] 96 % of control | [2] 93 % of control | [3] 94 % of control

N=C(N)c1ccc(-c2cc3ccc(C(=N)N)cc3s2)cc1
inactive: [4] 96 % of control | [5] 107 % of control | dose: 50.0 mg/kg/injection, schedule: Q04DX003 (ip), vehicle: saline with Tween-80 96 % of control

Cl/C=C/CSc1ccccc1
inactive: [6] 100 % of control | [7] 103 % of control | [8] 100 % of control

C[N+]1(C)C2CC(=O)CC1C1CC12 (stereo not given)
inactive: [9] 91 % of control | [10] 93 % of control | [11] 100 % of control | [12] 88 % of control | [13] 103 % of control

CC(N)(COC(=O)c1ccccc1)C(=O)O (stereo not given)
inactive: [11] 107 % of control | [13] 96 % of control | dose: 400.0 mg/kg/injection, schedule: Q04DX003 (ip), vehicle: saline 98 % of control

C/C(Cl)=C/CC1=C(O)c2ccccc2C(=O)C1=O
inactive: dose: 25.0 mg/kg/injection, schedule: Q01DX001 (ip), vehicle: water 104 % of control | dose: 50.0 mg/kg/injection, schedule: Q01DX001 (ip), vehicle: water 101 % of control | dose: 75.0 mg/kg/injection, schedule: Q01DX001 (ip), vehicle: water 97 % of control

CCOC(=O)C/C(=N\NC(=O)c1ccccc1O)C(=O)OCC
inactive: dose: 50.0 mg/kg/injection, schedule: Q01DX009 (ip), vehicle: Klucel (hydroxypropylcellulose) (HPC) 101 % of control | [14] 107 % of control | [15] 102 % of control | [16] 101 % of control

CCOC(=O)N1C=Cn2c(cnc2C)C1OCC (stereo not given)
inactive: [9] 109 % of control | [10] 100 % of control and 92 % of control | [11] 91 % of control | [12] 110 % of control and 90 % of control | [13] 94 % of control | [17] 92 % of control

CCCCC(c1nc2c(c3c1CCCC3)CCCC2)C(O)(C(F)(F)F)C(F)(F)F (stereo not given)
inactive: dose: 25.0 mg/kg/injection, schedule: Q01DX009 (ip), vehicle: saline with Tween-80 102 % of control | dose: 50.0 mg/kg/injection, schedule: Q01DX009 (ip), vehicle: saline with Tween-80 104 % of control | [18] 93 % of control and 87 % of control | [19] 97 % of control | [20] 89 % of control | [21] 100 % of control | [22] 102 % of control

O=[N+]([O-])c1cc2c(c([N+](=O)[O-])c1)Nc1cc(Cl)ccc1O2
inactive: [14] 95 % of control | [15] 96 % of control | [16] 96 % of control

CC(=O)Nc1ccc(S(=O)(=O)Oc2ccccc2)cc1
inactive: [1] 98 % of control | [2] 98 % of control | [3] 108 % of control

O=C(NC1OCC(O)C(O)C1O)Oc1ccccc1 (stereo not given)
inactive: [10] 108 % of control | dose: 100.0 mg/kg/injection, schedule: Q04DX003 (ip), vehicle: water 97 % of control | [12] 97 % of control | dose: 200.0 mg/kg/injection, schedule: Q04DX003 (ip), vehicle: water 96 % of control | [17] 101 % of control | dose: 400.0 mg/kg/injection, schedule: Q04DX003 (ip), vehicle: water 100 % of control

Cc1cccc(NC(=O)OCCN(CCOC(=O)Nc2cccc(C)c2)c2cccc(C)c2)c1
inactive: [6] 88 % of control | [7] 90 % of control | [8] 94 % of control

CC(=O)c1ccc(OC(=O)C(C)(C)C)cc1
inactive: [6] 97 % of control | [7] 103 % of control | [8] 98 % of control

CNC(=S)C(=S)NC
inactive: [4] 94 % of control | [5] 95 % of control

O=C(NCCCCCCNC(=O)Nc1ccc(C2=NCCCN2)cc1)Nc1ccc(C2=NCCCN2)cc1
inactive: dose: 6.25 mg/kg/injection, schedule: Q01DX Z (ip), vehicle: carboxymethylcellulose (CMC) 97 % of control | dose: 12.5 mg/kg/injection, schedule: Q01DX Z (ip), vehicle: carboxymethylcellulose (CMC) 97 % of control | dose: 25.0 mg/kg/injection, schedule: Q01DX Z (ip), vehicle: carboxymethylcellulose (CMC) 100 % of control

O=[N+]([O-])c1c(O)cc(O)c2ccccc12
inactive: dose: 5.0 mg/kg/injection, schedule: Q01DX001 (ip), vehicle: saline 102 % of control | dose: 10.0 mg/kg/injection, schedule: Q01DX001 (ip), vehicle: saline 106 % of control | dose: 20.0 mg/kg/injection, schedule: Q01DX001 (ip), vehicle: saline 101 % of control | dose: 40.0 mg/kg/injection, schedule: Q01DX001 (ip), vehicle: saline 102 % of control | dose: 80.0 mg/kg/injection, schedule: Q01DX001 (ip), vehicle: saline 104 % of control

CCCCCCCCCCCCOc1ccc(C)cc1
inactive: [18] 97 % of control | [19] 88 % of control | [20] 93 % of control | [21] 88 % of control | dose: 400.0 mg/kg/injection, schedule: Q01DX009 (ip), vehicle: saline with Tween-80 97 % of control | [22] 93 % of control

CC1CN1C1=C(F)C(=O)C(N2CC2C)=C(F)C1=O (stereo not given)
inactive: dose: 0.19 mg/kg/injection, schedule: Q01DX009 (ip), vehicle: Klucel (hydroxypropylcellulose) (HPC) 105 % of control | dose: 0.39 mg/kg/injection, schedule: Q01DX009 (ip), vehicle: Klucel (hydroxypropylcellulose) (HPC) 104 % of control | dose: 0.78 mg/kg/injection, schedule: Q01DX009 (ip), vehicle: Klucel (hydroxypropylcellulose) (HPC) 102 % of control | dose: 0.78 mg/kg/injection, schedule: Q04DX003 (ip), vehicle: Klucel (hydroxypropylcellulose) (HPC) 103 % of control | dose: 1.56 mg/kg/injection, schedule: Q01DX009 (ip), vehicle: Klucel (hydroxypropylcellulose) (HPC) 100 % of control | dose: 1.56 mg/kg/injection, schedule: Q04DX003 (ip), vehicle: Klucel (hydroxypropylcellulose) (HPC) 105 % of control | dose: 3.12 mg/kg/injection, schedule: Q01DX009 (ip), vehicle: Klucel (hydroxypropylcellulose) (HPC) 100 % of control | dose: 3.12 mg/kg/injection, schedule: Q04DX003 (ip), vehicle: Klucel (hydroxypropylcellulose) (HPC) 101 % of control | dose: 4.6 mg/kg/injection, schedule: Q01DX009 (ip), vehicle: Klucel (hydroxypropylcellulose) (HPC) 103 % of control

COc1ccccc1C(=O)N/N=C/c1cccc([N+](=O)[O-])c1
inactive: dose: 100.0 mg/kg/injection, schedule: Q04DX002 (ip), vehicle: Klucel (hydroxypropylcellulose) (HPC) 96 % of control | dose: 200.0 mg/kg/injection, schedule: Q04DX002 (ip), vehicle: Klucel (hydroxypropylcellulose) (HPC) 89 % of control | dose: 400.0 mg/kg/injection, schedule: Q04DX002 (ip), vehicle: Klucel (hydroxypropylcellulose) (HPC) 89 % of control

CCN(CC)CC#N
inactive: dose: 1.0 mg/kg/injection, schedule: Q01DX009 (ip), vehicle: saline 97 % of control | dose: 2.0 mg/kg/injection, schedule: Q01DX009 (ip), vehicle: saline 99 % of control | dose: 4.0 mg/kg/injection, schedule: Q01DX009 (ip), vehicle: saline 95 % of control | dose: 8.0 mg/kg/injection, schedule: Q01DX009 (ip), vehicle: saline 100 % of control

CCC(C)NC(=O)/C=C/C(=O)NC(C)CC (stereo not given)
inactive: [19] 91 % of control | [21] 100 % of control | [22] 100 % of control
